Tests used:
caspases 3 and 7 = experiment: IncuCyte caspase-3/7 real time apoptosis; assay type: cell-based, human
Description: For real time quantification of apoptosis induction, the fluorescent Caspase 3/7 and Annexin V red reagents, with an excitation maximum of 500 and 593 nm and an emission maximum of 530 and 614 nm, respectively, were used. The HCT116 cells were seeded at a density of 1,000 cell/well and allowed to grow overnight. The next day, compound 15k at 0, 2, 4, and 8μM was prepared and added, directly followed by the caspase 3/7 reagent at final concentration of 5μM or annexin V red reagent in final dilution of 1: 200. The cells were then incubated in IncuCyte Zoom live cell imaging and pictures were taken every 2 h for up to 50 h and analyzed using the integrated software. The IncuCyte® Caspase-3/7 apoptosis assay reagent couples the activated caspase-3/7 recognition motif (DEVD) to NucView™ 488, a DNA intercalating dye to enable quantification of apoptosis over time. Caspase-3/7 assay reagent is non-perturbing to cell growth and morphology. When added to cell culture medium, this inert, non-fluorescent substrate crosses the cell membrane, where it is cleaved by activated caspase-3/7, resulting in the release of the DNA dye and green fluorescent staining of nuclear DNA.

Bak = experiment: Western blot in HCT116 cells; assay type: cell-based, human; details: 4 μM, overnight
Description: (§1) HCT116 cells were lysed to obtain cytoplasmic and nuclear protein fractions, according to the protocol used in previous publications (Alhadidi and Shah, [2017]). Briefly, the cells were seeded in and incubated with 15k for overnight at 4μM. The cells were washed using ice-cold PBS and scraped using a cell scraper and collected in 15ml tubes. The cells were centrifuged and the PBS was discarded and replaced with 400 μl of buffer A (10 mM HEPES, pH 7.9, 0.1 mM EDTA, 0.1 mM EGTA, 10 mM KCl, 1 mM dithiothreitol, and 0.5 mM phenylmethylsulfonyl fluoride) in each tube. The cells were allowed to swell under in the buffer for 15 min on ice. Subsequently, 0.1% Nonidet P-40 was added to each suspension for 1 min to disturb the plasma membrane. The nuclei were precipitated by centrifugation at 13,000 rpm for 1 min at 4°C. The cytoplasmic proteins were collected in the supernatant and stored at −80°C. Two hundred μl of Buffer B (20 mM HEPES, pH 7.9, 1 mM EDTA, 1 mM EGTA, 400 mM NaCl, 1 mM dithiothreitol, and 1 mM phenylmethylsulfonyl fluoride) was added to the pellets and left for 30 min on ice with periodic mixing. The samples were centrifuged at 13,000 rpm for 15 min at 4°C to obtain the nuclear fraction (supernatant). The bicinchoninic acid (BCA) quantification assay was used to determine the concentration of protein in the cell extracts. The Western blot was done as previously described (Tiwari et al., [2013]). Rabbit α-tubulin, 1:4,000 dilution, rabbit Bax (1:1,000), rabbit BAK (1:1,000), rabbit β-Catenin (1:4,000), rabbit DVL3 (1:4,000), mouse β-actin (1:5,000), E-cadherin (1:4,000), and N-cadherin (1:4,000), antibodies were used. Membranes were then washed and incubated for 1 h with horseradish peroxidase-labeled (HRP) anti-rabbit and anti-mouse secondary antibodies (1:5,000 dilutions). ChemiDoc Imaging Systems from Bio-Rad, (Hercules, California USA) was used to detect the blots. Finally, proteins were quantified using the image J software. Data were calculated as ratios to β-actin.

DVL3 = experiment: Western blot in HCT116 cells; assay type: cell-based, human; details: 4 μM, p < 0.01 vs vehicle
Description: as §1

Bax (p21 and p18) = experiment: Western blot in HCT116 cells; assay type: cell-based, human; details: 4 μM, overnight, p < 0.001
Description: as §1

c-Myc = experiment: Western blot in HCT116 cells; assay type: cell-based, human; details: 4 μM, p < 0.01 vs control
Description: as §1

caspase 3 = experiment: Western blot in HCT116 cells; assay type: cell-based, human; details: 4 μM, p < 0.05 vs control
Description: as §1

E-cadherin = experiment: Western blot in HCT116 cells; assay type: cell-based, human; details: 4 μM, overnight
Description: as §1

cyclin B1 = experiment: Western blot in HCT116 cells; assay type: cell-based, human; details: 4 μM, p < 0.01
Description: as §1

Bcl-2 = experiment: Western blot in HCT116 cells; assay type: cell-based, human; details: 4 μM, overnight, p < 0.05
Description: as §1

N-cadherin = experiment: Western blot in HCT116 cells; assay type: cell-based, human; details: 4 μM, p < 0.01 vs control
Description: as §1

α-tubulin = experiment: Western blot in HCT116 cells; assay type: cell-based, human; details: 4 μM, overnight, p < 0.01 vs vehicle
Description: as §1

CRL-1459 = experiment: MTT assay, normal cell line; assay type: cell-based; details: 72 h incubation, mean ± SD of three experiments
Description: The 3-(4,5-dimethylthiazol-2-yl)-2,5-diphenyltetrazolium bromide (MTT) assay was used to determine the sensitivity of the different CRC cells to the novel silybin derivatives (Hussein et al., [2017]; Manivannan et al., [2017]). The cells were seeded at a density of 4,000–5,000 cells/well in 96 well plates and incubated with serial dilutions of the compounds (0, 0.1, 0.3, 1, 3, 10, 30, and 100 μM). The MTT dye (4 mg/ml) was added after 72 h of incubation and incubated with the cells for an additional 4 h at 37°C. Following incubation, the media was discarded and the formazan crystals were dissolved by adding 100 μL of DMSO to each well. A DTX 880 multimode detector (Beckman Coulter Life, Indianapolis IN, USA) was used to determine the absorbance readings at a wavelength of 570 nm. The IC50 values were determined based on 3 separate experiments, with each experiment done in triplicate. The selectivity of the compounds was determined by comparing their cytotoxicity for CRC to normal epithelial cell lines (CHO, and CRL1459).

β-catenin = experiment: Western blot in HCT116 cells (nuclear); assay type: cell-based, human; details: 4 μM, p < 0.001 vs control
Description: as §1, with “The samples were centrifuged at 13,000 rpm for 15 min at 4°C to obtain the nuclear fraction (supernatant).” left out, “The Western blot was done as previously described (Tiwari et al., [2013]). Rabbit α-tubulin, 1:4,000 dilution, rabbit Bax (1:1,000), rabbit BAK (1:1,000), rabbit β-Catenin (1:4,000), rabbit DVL3 (1:4,000), mouse β-actin (1:5,000), E-cadherin (1:4,000), and N-cadherin (1:4,000), antibodies were used. Membranes were then washed and incubated for 1 h with horseradish peroxidase-labeled (HRP) anti-rabbit and anti-mouse secondary antibodies (1:5,000 dilutions). ChemiDoc Imaging Systems from Bio-Rad, (Hercules, California USA) was used to detect the blots.” left out

O=C(/C=C/c1cccc(OCc2ccccc2)c1)c1ccc(O)cc1 [Compound 15k]
incubation time to induce apoptosis (caspase 3/7) (caspases 3 and 7; 2 μM): ≈ 24 h | incubation time to induce apoptosis (caspase 3/7) (caspases 3 and 7; 4 and 8 μM): ≈ 10 h | Bak levels (Bak): no significant effect | levels of DVL3 (DVL3): significantly decreased | cleavage of Bax p21 to p18 (Bax (p21 and p18)): induced the cleavage of the protein Bax (p 21) | levels of c-Myc protein (c-Myc): significant decrease | cleavage of total caspase 3 (caspase 3): induced the cleavage of total caspase | E-cadherin expression (Western blot) (E-cadherin): not significantly altered | expression levels of cyclin B1 (cyclin B1): significant increase | levels of Bcl-2 (Bcl-2): significantly decreased | level of N-cadherin (N-cadherin): significantly downregulated | expression of α-tubulin (α-tubulin): significant decrease | IC50 (CRL-1459): 8.5 ± 0.7 µM | nuclear β-catenin full-length protein (p1 and p2) (β-catenin): induced the cleavage of the full-length protein

Source: article PMC5974752, “Bax/Tubulin/Epithelial-Mesenchymal Pathways Determine the Efficacy of Silybin Analog HM015k in Colorectal Cancer Cell Growth and Metastasis” (Frontiers in Pharmacology, 2018)
